Laboratory results published in patent publication US11180455B2, “Compounds for the treatment of pain” (priority 2018, dated 2021).
Read-outs that look alike come from different tables or passages of the source.

What was measured:
Male Sprague-Dawley rats [1] = type: in vivo; conditions: rat
Male Sprague-Dawley rats [2] = conditions: maximum pCO2 within 2 hours of administration, rat, subcutaneous
human μ opioid receptor = human μ opioid receptor (Homo sapiens (Human), UniProt P35372); assay: Alternate functional activity ([35S]GTPγS binding, SPA) assay; type: biochemical; conditions: alternate [35S]GTPγS binding assay (SPA beads), CHO cell membranes expressing human μ opioid receptor
Experimental: The [^35S]GTPγS assay measures the functional properties of a compound by quantifying the level of G-protein activation following agonist binding in studies using stably transfected cells, and is considered to be a measure of the efficacy of a compound. Membranes from CHO (Chinese Hamster Ovary) cells that stably expressed one type of the cloned human opioid receptor human were used in the experiments. The assay buffer consisted of 50 mM Tris-HCl, pH 7.4, 3 mM MgCl2, 0.2 mM EGTA, 5 μM GDP, and 100 mM NaCl. CHO cell membranes stably expressing the human p opioid receptor were pre-incubated with scintillation proximity assay beads from PerkinElmer® (WGA PVT SPA) for 30 minutes, at 8 µg membrane and 350 µg beads in a volume of 0.1 mL per reaction. In a final volume of 0.2 mL, 11 different concentrations of each test compound were incubated with the membrane-SPA bead mixture and a final concentration of 0.020 nM [35S]GTPγS for 1.5 hours with gentle shaking. Reactions were then incubated for 5 hours. Data are the mean EC50 values±S.E.M. EC50 values (nM) for compounds 12, 16, 19, 20, 149, 151, 152, 157, 160, 161, 164-169, 172, 173, 180-197, and 199-207 are shown in Table 1.

CO[C@@]12CC[C@@]3(C[C@@H]1[C@](C)(O)C(C)(C)C)[C@H]1Cc4ccc(O)c5c4[C@@]3(CCN1CC1CC1)[C@H]2O5 [Buprenorphine, buprenorphine, reference compound]
MEMO SC CFA (Male Sprague-Dawley rats [1]; in vivo): 0.1 mg/kg

COC1(c2cccc(C(N)=O)c2)C2CCCC1CN(C1CC3(COC3)C1)C2.O=C(O)C[C@H](O)C(=O)O [Compound 133, 3-((1R,5S,9r)-9-methoxy-3-(2-oxaspiro[3.3]heptan-6-yl)-3-azabicyclo[3.3.1]nonan-9-yl)benzamide (S)-2-hydroxysuccinate]
<60 mmHg @ 10X CFA MEMD (Male Sprague-Dawley rats [2]): + (resulted in a maximum pCO2 value of less than 60 mmHg within 2 hours of administration)

CO[C@@]1(c2ccnc(C(N)=O)c2)[C@@H]2CCC[C@H]1CN(Cc1ncc(C)[nH]1)C2.Cl [Compound 153, 4-((1R,5S,9r)-9-methoxy-3-((5-methyl-1H-imidazol-2-yl)methyl)-3-azabicyclo[3.3.1]nonan-9-yl)picolinamide Hydrochloride]
MEMO SC CFA (Male Sprague-Dawley rats [1]; minimum dose at which maximal reversal (MEMD) of weight bearing was achieved, subcutaneous administration): 1 mg/kg

CCOC1(c2cccc(C(N)=O)c2)C2CCCC1CNC2 [Compound 160, 3-((1R,5S,9r)-9-ethoxy-3-azabicyclo[3.3.1]nonan-9-yl)benzamide]
<60 mmHg @ 10X CFA MEMD (Male Sprague-Dawley rats [2]): + (resulted in a maximum pCO2 value of less than 60 mmHg within 2 hours of administration) | <60 mmHg @ 100X CFA MEMD (Male Sprague-Dawley rats [2]; 100X CFA MEMD dose): + (resulted in a maximum pCO2 value of less than 60 mmHg within 2 hours of administration)

CCOC1(c2cc(C(N)=O)ccc2F)C2CCCC1CN(C)C2 (stereo not drawn) [Compound 194]
EC50 (human μ opioid receptor): 10 to 75 nM
